Data published in patent publication US20060293307A1, “Oxazolidinone derivatives as antimicrobials” (priority 2002, published 2006).
Like-named read-outs stand apart in the source and are kept apart here.

Columns and labels:
[1] = tested on: E. faecium 6A (VRE); assay: MIC, agar incorporation method; type: cell-based, Enterococcus faecium
[2] = tested on: Moraxella cata. M2; assay: MIC, agar incorporation method; type: cell-based
[3] = tested on: S. pneumoniae ATCC 49619; assay: MIC, agar incorporation method; type: cell-based, Streptococcus pneumoniae
[4] = tested on: Moraxella M1; assay: MIC, agar incorporation method; type: cell-based
[5] = tested on: Acinetobacter 9956; assay: MIC, agar incorporation method; type: cell-based
[6] = tested on: S. pneumoniae AB 10; assay: MIC, agar incorporation method; type: cell-based, Streptococcus pneumoniae
[7] = tested on: E. durans 581; assay: MIC, agar incorporation method; type: cell-based
[8] = tested on: H. influenzae βIac; assay: MIC against Haemophilus strains; type: cell-based
[9] = tested on: K. oxytoca 49131; assay: MIC, agar incorporation method; type: cell-based
[10] = tested on: S. epidermidis 358; assay: MIC, agar incorporation method; type: cell-based, Staphylococcus epidermidis
[11] = tested on: E. coli 25922; assay: MIC, agar incorporation method; type: cell-based
[12] = tested on: S. pneumoniae AB 34; assay: MIC, agar incorporation method; type: cell-based, Streptococcus pneumoniae
[13] = tested on: E. faecium 398(VRE); assay: MIC, agar incorporation method; type: cell-based, Enterococcus faecium
[14] = tested on: S. pneumoniae AB 25; assay: MIC, agar incorporation method; type: cell-based, Streptococcus pneumoniae
[15] = tested on: S. pneumoniae 1256; assay: MIC, agar incorporation method; type: cell-based, Streptococcus pneumoniae
[16] = tested on: S. pneumoniae ATCC 6303; assay: MIC, agar incorporation method; type: cell-based, Streptococcus pneumoniae
[17] = tested on: S. pneumoniae AB-3; assay: MIC, agar incorporation method; type: cell-based, Streptococcus pneumoniae
[18] = tested on: S. epidermidis (MRSE)32965; assay: MIC, agar incorporation method; type: cell-based, Staphylococcus epidermidis
[19] = tested on: E. faecalis 21777; assay: MIC, agar incorporation method; type: cell-based
[20] = tested on: S. pyogenes 25147; assay: MIC, agar incorporation method; type: cell-based, Streptococcus pyogenes
[21] = tested on: S. pneumoniae AB 30; assay: MIC, agar incorporation method; type: cell-based, Streptococcus pneumoniae
[22] = tested on: S. pneumoniae AB 31; assay: MIC, agar incorporation method; type: cell-based, Streptococcus pneumoniae
[23] = tested on: S. aureus (Smith 49951); assay: MIC, agar incorporation method; type: cell-based, Staphylococcus aureus
[24] = tested on: S. pneumoniae AB 14; assay: MIC, agar incorporation method; type: cell-based, Streptococcus pneumoniae
[25] = tested on: S. pneumoniae CS 1687; assay: MIC, agar incorporation method; type: cell-based, Streptococcus pneumoniae
[26] = tested on: H. influenzae 1381; assay: MIC against Haemophilus strains; type: cell-based
[27] = tested on: S. epidermidis 823; assay: MIC, agar incorporation method; type: cell-based, Staphylococcus epidermidis
[28] = S. No. 48, S. pneumoniae ATCC 49619
[29] = S. No. 50, S. pneumoniae ATCC 6303
[30] = S. No. 13, S. epidermidis (MRSE)32965
[31] = S. No. 9, S. aureus (Smith 49951)
[32] = S. No. 44, S. pneumoniae CS 1687
[33] = Streptococcus pneumoniae, ATCC49619
[34] = Staphylococcus epidermidis, 358
[35] = Streptococcus pneumoniae, ATCC6303
[36] = Staphylococcus epidermidis, MRSE
[37] = Streptococcus pneumoniae, CS1687
[38] = Staphylococcus epidermidis, 823

Measured: MIC

CC(=O)NC[C@H]1CN(c2ccc(N3CCN(c4ccc([N+](=O)[O-])s4)CC3)cc2)C(=O)O1 [Compound No. 6, (S)—N-[[3-[4-[N-1-(5-nitro-2-thienyl)piperazinyl]-phenyl]-2-oxo-5-oxazolidinyl]-methyl]-acetamide]
<0.125 µg/mL: [24]; S. No. 37, S. pneumoniae AB 14
0.5 µg/mL: [3]; [28] | [12]; S. No. 49, S. pneumoniae AB 34 | [14]; S. No. 45, S. pneumoniae AB 25 | [16]; [29] | [20]; S. No. 52, S. pyogenes 25147 | [21]; S. No. 47, S. pneumoniae AB 30 | [22]; S. No. 36, S. pneumoniae AB 31 | [25]; [32]
16 µg/mL: [26]; s. No. 7, H. influenzae 1381
0.25 µg/mL: [6]; S. No. 35, S. pneumoniae AB 10 | [15]; S. No. 56, S. pneumoniae 1256 | [17]; S. No. 32, S. pneumoniae AB-3
1 µg/mL: [1]; S. No. 21, E. faecium 6A (VRE) | [7]; S. No. 24, E. durans 581 | [10]; S. No. 14, S. epidermidis 358 | [13]; S. No. 22, E. faecium 398(VRE) | [18]; [30] | [19]; S. No. 18, E. faecalis 21777 | [23]; [31] | [27]; S. No. 12, S. epidermidis 823
>16 µg/mL: [4]; S. No. 58, Moraxella M1 | [5]; S. No. 30, Acinetobacter 9956 | [9]; S. No. 27, K. oxytoca 49131 | [11]; S. No. 25, E. coli 25922
8 µg/mL: [2]; S. No. 59, Moraxella cata. M2 | [8]; s. No. 3, H. influenzae βIac

CC(=O)NC[C@H]1CN(c2ccc(N3CCN(c4cc(C(OC(C)=O)OC(C)=O)sc4[N+](=O)[O-])CC3)c(F)c2)C(=O)O1 [Compound No. 5, (S)—N-[[3-[3-Fluoro-4-[4-{3-thienyl(2-nitro)-5-acetyloxy}methylacetate]-1-piperazinyl]phenyl]-2-oxo-5-oxazolidinyl]acetamide]
<0.06 µg/mL: [10]; S. No. 14, S. epidermidis 358 | [18]; [30] | [27]; S. No. 12, S. epidermidis 823
>8 µg/mL: [5]; S. No. 30, Acinetobacter 9956 | [9]; S. No. 27, K. oxytoca 49131 | [11]; S. No. 25, E. coli 25922
>16 µg/mL: [8]; s. No. 3, H. influenzae βIac | [26]; s. No. 7, H. influenzae 1381
4 µg/mL: [4]; S. No. 58, Moraxella M1
1 µg/mL: [13]; S. No. 22, E. faecium 398(VRE) | [19]; S. No. 18, E. faecalis 21777
2 µg/mL: [1]; S. No. 21, E. faecium 6A (VRE) | [2]; S. No. 59, Moraxella cata. M2 | [7]; S. No. 24, E. durans 581
0.5 µg/mL: [3]; [28] | [12]; S. No. 49, S. pneumoniae AB 34 | [14]; S. No. 45, S. pneumoniae AB 25 | [16]; [29] | [17]; S. No. 32, S. pneumoniae AB-3 | [20]; S. No. 52, S. pyogenes 25147 | [21]; S. No. 47, S. pneumoniae AB 30 | [22]; S. No. 36, S. pneumoniae AB 31 | [24]; S. No. 37, S. pneumoniae AB 14 | [25]; [32]
0.25 µg/mL: [6]; S. No. 35, S. pneumoniae AB 10 | [15]; S. No. 56, S. pneumoniae 1256 | [23]; [31]

O=C(NC[C@H]1CN(c2ccc(N3CCN(c4ccc([N+](=O)[O-])s4)CC3)c(F)c2)C(=O)O1)C(F)F [Compound No. 8, (S)—N-[[3-[3-Fluoro-4-[4-(5-nitro-2-thienyl)-1-piperazinyl]phenyl]-2-oxo-5-oxazolidinyl]methyl]difluoroacetamide]
0.125 µg/mL: [6]; Streptococcus pneumoniae, AB10 | [15]; Streptococcus pneumoniae, 1256 | [17]; Streptococcus pneumoniae, AB3
2 µg/mL: [19]; Enterococcus faecalis, 21777
1 µg/mL: [1]; Enterococcus faecium, VRE | [2]; Moraxella, CATA.M2 | [4]; Moraxella, M1 | [23]; Staphylococcus aureus
0.5 µg/mL: [12]; Streptococcus pneumoniae, AB34
0.25 µg/mL: [3]; [33] | [7]; Enterococcus durans, 581 | [10]; [34] | [13]; Enterococcus faecium, VRE | [14]; Streptococcus pneumoniae, AB25 | [16]; [35] | [18]; [36] | [20]; Streptococcus pyogenes, 25147 | [21]; Streptococcus pneumoniae, AB30 | [22]; Streptococcus pneumoniae, AB31 | [24]; Streptococcus pneumoniae, AB14 | [25]; [37] | [27]; [38]
> 8 µg/mL: [9]; Klebsiella oxytoca, 49131 | [11]; Escherichia coli, 25922
8 µg/mL: [5]; Acinetobacter, 9956
> 16 µg/mL: [8]; Haemophilus influenzae | [26]; Haemophilus influenzae, 1381

CC(=O)NC[C@H]1CN(c2ccc(N3CCN(c4ccc([N+](=O)[O-])o4)CC3)c(F)c2)C(=O)O1 [Compound No. 4, (S)—N-[[3-[3-Fluoro-4-[4-(5-nitro-2-furyl)-1-piperazinyl]phenyl]-2-oxo-5-oxazolidinyl]methyl]acetamide]
16 µg/mL: [23]; Staphylococcus aureus, S. No. 9, S. aureus (Smith 49951), read-out: MIC
> 16 µg/mL: [2]; S. No. 59, Moraxella cata. M2, read-out: MIC | [4]; S. No. 58, Moraxella M1, read-out: MIC | [5]; S. No. 30, Acinetobacter 9956, read-out: MIC | [9]; Klebsiella oxytoca, S. No. 27, K. oxytoca 49131, read-out: MIC | [11]; Escherichia coli, S. No. 25, E. coli 25922, read-out: MIC
8 µg/mL: [1]; Enterococcus faecium, S. No. 21, E. faecium 6A (VRE), read-out: MIC | [17]; Streptococcus pneumoniae, AB3, S. No. 32, S. pneumoniae AB-3, read-out: MIC | [19]; Enterococcus faecalis, S. No. 18, E. faecalis 21777, read-out: MIC | [22]; Streptococcus pneumoniae, AB31, S. No. 36, S. pneumoniae AB 31, read-out: MIC
2 µg/mL: [24]; Streptococcus pneumoniae, AB14, S. No. 37, S. pneumoniae AB 14, read-out: MIC
4 µg/mL: [3]; Streptococcus pneumoniae, ATCC49619, S. No. 48, S. pneumoniae ATCC 49619, read-out: MIC | [6]; Streptococcus pneumoniae, AB10, S. No. 35, S. pneumoniae AB 10, read-out: MIC | [7]; Enterococcus durans, S. No. 24, E. durans 581, read-out: MIC | [10]; Staphylococcus epidermidis, S. No. 14, S. epidermidis 358, read-out: MIC | [12]; Streptococcus pneumoniae, AB34, S. No. 49, S. pneumoniae AB 34, read-out: MIC | [13]; Enterococcus faecium, S. No. 22, E. faecium 398(VRE), read-out: MIC | [14]; Streptococcus pneumoniae, AB25, S. No. 45, S. pneumoniae AB 25, read-out: MIC | [15]; Streptococcus pneumoniae, S. No. 56, S. pneumoniae 1256, read-out: MIC | [16]; Streptococcus pneumoniae, ATCC6303, S. No. 50, S. pneumoniae ATCC 6303, read-out: MIC | [18]; Staphylococcus epidermidis, S. No. 13, S. epidermidis (MRSE)32965, read-out: MIC | [20]; Streptococcus pyogenes, S. No. 52, S. pyogenes 25147, read-out: MIC | [21]; Streptococcus pneumoniae, AB30, S. No. 47, S. pneumoniae AB 30, read-out: MIC | [25]; Streptococcus pneumoniae, CS1687, S. No. 44, S. pneumoniae CS 1687, read-out: MIC | [27]; Staphylococcus epidermidis, S. No. 12, S. epidermidis 823, read-out: MIC

CN[C@H](CC(C)C)C(=O)N[C@H]1C(=O)N[C@@H](CC(N)=O)C(=O)N[C@H]2C(=O)N[C@H]3C(=O)N[C@H](C(=O)N[C@H](C(=O)O)c4cc(O)cc(O)c4-c4cc3ccc4O)[C@H](O)c3ccc(c(Cl)c3)Oc3cc2cc(c3O[C@@H]2O[C@H](CO)[C@@H](O)[C@H](O)[C@H]2O[C@H]2C[C@](C)(N)[C@H](O)[C@H](C)O2)Oc2ccc(cc2Cl)[C@H]1O [Vancomycin, reference compound]
> 16 µg/mL: [1]; Enterococcus faecium, VRE | [5]; Acinetobacter, 9956 | [7]; Enterococcus durans, 581 | [9]; Klebsiella oxytoca, 49131 | [11]; Escherichia coli, 25922 | [13]; Enterococcus faecium, VRE
2 µg/mL: [10]; [34] | [18]; [36] | [19]; Enterococcus faecalis, 21777 | [27]; [38]
0.25 µg/mL: [3]; [33] | [6]; Streptococcus pneumoniae, AB10 | [12]; Streptococcus pneumoniae, AB34 | [14]; Streptococcus pneumoniae, AB25 | [16]; [35] | [21]; Streptococcus pneumoniae, AB30 | [22]; Streptococcus pneumoniae, AB31 | [24]; Streptococcus pneumoniae, AB14 | [25]; [37]
> 8 µg/mL: [2]; Moraxella, CATA.M2 | [4]; Moraxella, M1
1 µg/mL: [23]; Staphylococcus aureus
0.5 µg/mL: [15]; Streptococcus pneumoniae, 1256 | [17]; Streptococcus pneumoniae, AB3 | [20]; Streptococcus pyogenes, 25147
